This note sets out measurements from patent US7208517B1, “Endothelin antagonists” (Abbott Labortories, priority 1994, dated 2007).

Holding throughout (assay type): in vivo, human
Experiment [1] has as its system male subjects with hormone refractory prostate cancer. The experiment in a line: Crosslinked N-telopeptide levels of treated subjects. The settings on record: subjects treated versus placebo. The method, then: (§1) Studies were performed on male subjects with asymptomatic hormone refractory prostate cancer with rising PSA levels and on male subjects with symptomatic hormone refractory prostate cancer with rising PSA levels and pain. Subjects in the phase II studies had castrate levels of testosterone, either due to pharmacologic intervention, via leuprolide (Lupron®) or goserelin (Zoladex®), or via surgical castration. Subjects received ABT-627 or placebo. The following tests were conducted:
(§2) ABT-627 was formulated in 2.5 and 10 mg doses. An oral liquid formulation of ABT-627 was also prepared as follows: 1 mg/ml ABT-627, 50% glycerin, 14% alcohol, and water. Matching placebos were also provided.
Markers of osteoblastic activity were assessed using […]. Bone markers include bone alkaline phosphatase (BAP), deoxypridinoline, and N-telopeptide of Type I collagen. Blood samples were collected prior to dosing on Day 1, Day 42, Day 84, Day 168, and every 28 days after Day 168, with a final collection on the last day of the study.
Cross-linked N-telopeptide levels were determined using the DiaSorin (Stillwater, MN) assay for the quantitative determination of carboxyterminal cross-linked telopeptide of type I collagen (ICTP) in human serum by equilibrium radioimmunoassay (RIA). […] The bound tracer in the pellet was counted with a gamma counter. […]

Experiment [2] shares this test system. The experiment in a line: Prostate specific antigen (PSA) level assay in serum of treated subjects. To be noted: subjects treated with placebo or 2.5 mg or 10 mg. The method, then: as §1, §2
A number of recognized or putative biochemical markers of disease progression have been used to monitor treatment of individuals with prostate cancer. […]
The effect of ABT-627 administeration on prostate specific antigen (PSA) levels in human subject serum samples was determined using the procedure described in the Chiron Diagnostics ACS: Centaur PSA2 Assay. […]
Briefly, a subject population was treated with a placebo or 2.5 mg or 10 mg of ABT-627. […] A direct relationship exists between the amount of PSA present in the patient sample and the RLU's (relative light units) detected.

Experiment [3] has the same test system. The experiment in a line: Acid phosphatase levels in serum of treated subjects. To be noted: subjects treated with placebo or 2.5 mg or 10 mg. The method, then: as §1, §2
The enzyme Acid Phosphatase (ACP) catalyzes the hydrolysis of alpha-naphthyl phosphate to alpha-naphthol and inorganic phosphate. The alpha-naphthol immediately reacts with fast red TR salt to produce a yellow chromophore with an absorbance maximum at 405 nm. The rate of increase in absorbance at 405 nm is directly proportional to ACP activity in the sample. ACP activity was determined in the presence and absence of L-tartrate, the difference being attributed to prostatic acid phosphatase activity.
Briefly, a subject population was treated with a placebo or 2.5 mg or 10 mg of ABT-627. […] The mixture was incubated for another 5 minutes, and a second absorbance was read to provide a final absorbance. […]

Experiment [4] shares this test system. The experiment in a line: Chromagranin-A levels in serum of treated subjects. To be noted: 2.5 mg/day. On the procedure: as §1, §2
The effect of ABT-627 adminstration on Chromagranin-A levels in human serum samples was determined by proprietary assay conducted at the Nichols Institute. The procedure is a two site chemiluminescence assay (ICMA) using one monoclonal antibody conjugated with biotin, another monoclonal antibody labeled with an acridinium ester, and an avidin-coated solid phase. The antibody/Chromagranin-A/antibody complex is bound to the solid phase by the avidin-biotin interaction and unbound materials are removed by washing. The bound, acridinium-labeled material produces light that is detected in a luminometer after addition of triggering agents. The Limit of Detection (LOD) for the assay was 0.07 ng/mL.

In the case of `CCCCCN(CCCC)C(=O)CN1C[C@H](c2ccc3c(c2)OCO3)[C@@H](C(=O)O)[C@@H]1c1ccc(OC)cc1` [ABT-627], the “Crosslinked N-telopeptide levels (AUC, FIG. 4)” value in experiment [1] is given as “Crosslinked N-telopeptide levels decreased”. Also, the “rate of increase of PSA in serum (AUC, FIG. 2)” value in experiment [2] is “rate of increase of PSA in the serum samples decreases”. Moreover, the “rate of increase and average change from baseline for acid phosphatase (AUC, FIG. 7)” value in experiment [3] was “the rate of increase and the average change from baseline for acid phosphatase was decreased”. Moreover, the “average change from baseline for Chromagranin-A (AUC, FIG. 8)” value in experiment [4] was “the average change from baseline for Chromagranin-A was higher”.
